Data from paper PMC11995216, “End-to-End Backbone Cyclization Enhances Passive Permeability of bRo5 Oligomeric Depsipeptides with Nonlinear Size Dependence” (ACS Medicinal Chemistry Letters, 2025).
Where “and” joins values, the source holds several entries; their conditions need not be identical. Equal values may be shown once. Read-outs that look alike come from different tables or passages of the source. Non-standard residues stand in square brackets, D forms with d. Residues, ends and D or L forms follow the SMILES beside them. *: point of attachment. Ahp(2) = CCCCC[C@H](N)C(=O)O; dNMeA = CN[C@H](C)C(=O)O; Boc = CC(C)(C)OC(=O)*; OBn = c1ccc(CO*)cc1

What was measured:
[1] = in vitro; conditions: PAMPA, Papp
[2] = initial concentration 500 uM, UV detection
[3] = calculated using Supplement Equation 1, UV detection
[4] = tested on: PAMPA; conditions: UV detection, initial concentration 500 uM
[5] = PAMPA, 500 uM
[6] = UV detection
[7] = tested on: PAMPA; conditions: UV detection
[8] = Acceptor Concentration (uM) / [row 1]
[9] = Acceptor Concentration (uM) / [row 2]
[10] = Acceptor Concentration (uM) / [row 3]
[11] = Acceptor Concentration (uM) / [row 4]
[12] = Acceptor Concentration (uM) / [row 5]
[13] = Acceptor Concentration (uM) / [row 6]
[14] = Acceptor Concentration (uM) / [row 7]
[15] = Acceptor Concentration (uM) / [row 8]
[16] = Acceptor Concentration (uM) / [row 9]
[17] = Acceptor Concentration (uM) / [row 10]

## CCCCC[C@H](OC(=O)[C@@H](C)N(C)C(=O)[C@H](CCCCC)OC(=O)[C@@H](C)N(C)C(=O)[C@H](CCCCC)OC(=O)[C@@H](C)N(C)C(=O)[C@H](CCCCC)OC(=O)[C@@H](C)N(C)C(=O)OC(C)(C)C)C(=O)OCc1ccccc1 [Compound L1.4]
[1]
  Papp at 500 uM: 1.94 ± 0.22 ×10⁻⁶ cm/s
[2]; Well 1 / [donor], Well 1
  donor concentration after incubation: 417 µM and 390 µM
[2]; Well 1 / [donor], Well 1, standard curve
  donor concentration after incubation: 417 µM and 390 µM
[2]; Well 2 / [donor], Well 2
  donor concentration after incubation: 379 µM and 406 µM
[2]; Well 2 / [donor], Well 2, standard curve
  donor concentration after incubation: 379 µM and 406 µM
[2]; Well 3 / [donor], Well 3
  donor concentration after incubation: 432 µM and 382 µM
[2]; Well 3 / [donor], Well 3, standard curve
  donor concentration after incubation: 432 µM and 382 µM
[2]; Well 4 / [donor], Well 4
  donor concentration after incubation: 404 µM and 364 µM
[2]; Well 4 / [donor], Well 4, standard curve
  donor concentration after incubation: 404 µM and 364 µM
[2]; Well 5 / [donor], Well 5
  donor concentration after incubation: 372 µM and 379 µM
[2]; Well 5 / [donor], Well 5, standard curve
  donor concentration after incubation: 372 µM and 379 µM
[3]; Well 1 / %T, Well 1
  %T: 0.25% (2×) and 0.31% (2×)
[3]; Well 2 / %T, Well 2
  %T: 0.3% (2×) and 0.25% (2×)
[3]; Well 3 / %T, Well 3
  %T: 0.3% (2×) and 0.28% (2×)
[3]; Well 4 / %T, Well 4
  %T: 0.31% (2×) and 0.32% (2×)
[3]; Well 5 / %T, Well 5
  %T: 0.33% (2×) and 0.26% (2×)
[4]; [8]
  Acceptor Concentration: 52.3 µM
[4]; [9]
  Acceptor Concentration: 57.9 µM
[4]; [10]
  Acceptor Concentration: 64.4 µM
[4]; [11]
  Acceptor Concentration: 61.4 µM
[4]; [12]
  Acceptor Concentration: 62.2 µM
[4]; [13]
  Acceptor Concentration: 61.3 µM
[4]; [14]
  Acceptor Concentration: 51.5 µM
[4]; [15]
  Acceptor Concentration: 55 µM
[4]; [16]
  Acceptor Concentration: 59.1 µM
[4]; [17]
  Acceptor Concentration: 51.7 µM
[4]; Acceptor Concentration (uM) / experiment 1
  Acceptor Concentration: 52.3 µM
[4]; Acceptor Concentration (uM) / experiment 2
  Acceptor Concentration: 57.9 µM
[4]; Acceptor Concentration (uM) / experiment 3
  Acceptor Concentration: 64.4 µM
[4]; Acceptor Concentration (uM) / experiment 4
  Acceptor Concentration: 61.4 µM
[4]; Acceptor Concentration (uM) / experiment 5
  Acceptor Concentration: 62.2 µM
[4]; Acceptor Concentration (uM) / experiment 6
  Acceptor Concentration: 61.3 µM
[4]; Acceptor Concentration (uM) / experiment 7
  Acceptor Concentration: 51.5 µM
[4]; Acceptor Concentration (uM) / experiment 8
  Acceptor Concentration: 55 µM
[4]; Acceptor Concentration (uM) / experiment 9
  Acceptor Concentration: 59.1 µM
[4]; Acceptor Concentration (uM) / experiment 10
  Acceptor Concentration: 51.7 µM
[5]
  Δ % diffusion: ↑14%
[6]; Well 1 / %R, Well 1
  % recovery: 94%
[6]; Well 2 / %R, Well 2
  % recovery: 87% (2×) and 92% (2×)
[6]; Well 3 / %R, Well 3
  % recovery: 99% (2×) and 87% (2×)
[6]; Well 4 / %R, Well 4
  % recovery: 93% (2×) and 85% (2×)
[6]; Well 5 / %R, Well 5
  % recovery: 87% (2×) and 86% (2×)
[7]; Papp (x 10^-6 cm/s) / [row 1]
  Papp: 1.61 ×10⁻⁶ cm/s
[7]; Papp (x 10^-6 cm/s) / [row 2]
  Papp: 2.02 ×10⁻⁶ cm/s
[7]; Papp (x 10^-6 cm/s) / [row 3]
  Papp: 2.01 ×10⁻⁶ cm/s
[7]; Papp (x 10^-6 cm/s) / [row 4]
  Papp: 2.03 ×10⁻⁶ cm/s
[7]; Papp (x 10^-6 cm/s) / [row 5]
  Papp: 2.24 ×10⁻⁶ cm/s
[7]; Papp (x 10^-6 cm/s) / [row 6]
  Papp: 2.09 ×10⁻⁶ cm/s
[7]; Papp (x 10^-6 cm/s) / [row 7]
  Papp: 1.63 ×10⁻⁶ cm/s
[7]; Papp (x 10^-6 cm/s) / [row 8]
  Papp: 1.88 ×10⁻⁶ cm/s
[7]; Papp (x 10^-6 cm/s) / [row 9]
  Papp: 2.15 ×10⁻⁶ cm/s
[7]; Papp (x 10^-6 cm/s) / [row 10]
  Papp: 1.75 ×10⁻⁶ cm/s
[7]; Papp (x 10^-6 cm/s) / experiment 1
  Papp: 1.61 ×10⁻⁶ cm/s
[7]; Papp (x 10^-6 cm/s) / experiment 2
  Papp: 2.02 ×10⁻⁶ cm/s
[7]; Papp (x 10^-6 cm/s) / experiment 3
  Papp: 2.01 ×10⁻⁶ cm/s
[7]; Papp (x 10^-6 cm/s) / experiment 4
  Papp: 2.03 ×10⁻⁶ cm/s
[7]; Papp (x 10^-6 cm/s) / experiment 5
  Papp: 2.24 ×10⁻⁶ cm/s
[7]; Papp (x 10^-6 cm/s) / experiment 6
  Papp: 2.09 ×10⁻⁶ cm/s
[7]; Papp (x 10^-6 cm/s) / experiment 7
  Papp: 1.63 ×10⁻⁶ cm/s
[7]; Papp (x 10^-6 cm/s) / experiment 8
  Papp: 1.88 ×10⁻⁶ cm/s
[7]; Papp (x 10^-6 cm/s) / experiment 9
  Papp: 2.15 ×10⁻⁶ cm/s
[7]; Papp (x 10^-6 cm/s) / experiment 10
  Papp: 1.75 ×10⁻⁶ cm/s

## CCCCC[C@H](NC(=O)[C@@H](C)N(C)C(=O)[C@H](CCCCC)NC(=O)[C@@H](C)N(C)C(=O)[C@H](CCCCC)NC(=O)[C@@H](C)N(C)C(=O)[C@H](CCCCC)NC(=O)[C@@H](C)N(C)C(=O)OC(C)(C)C)C(=O)OCc1ccccc1 [Compound L2.5] (Boc-[dNMeA][Ahp(2)][dNMeA][Ahp(2)][dNMeA][Ahp(2)][dNMeA][Ahp(2)]-OBn)
[2]; Well 1 / [donor], Well 1
  donor concentration after incubation: 362 µM and 345 µM
[2]; Well 2 / [donor], Well 2
  donor concentration after incubation: 391 µM and 386 µM
[2]; Well 3 / [donor], Well 3
  donor concentration after incubation: 400 µM and 397 µM
[2]; Well 4 / [donor], Well 4
  donor concentration after incubation: 391 µM and 376 µM
[2]; Well 5 / [donor], Well 5
  donor concentration after incubation: 351 µM and 405 µM
[3]; Well 1 / %T, Well 1
  %T: 0.61% and 0.63%
[3]; Well 2 / %T, Well 2
  %T: 0.61% and 0.6%
[3]; Well 3 / %T, Well 3
  %T: 0.58% and 0.63%
[3]; Well 4 / %T, Well 4
  %T: 0.6% and 0.62%
[3]; Well 5 / %T, Well 5
  %T: 0.61% and 0.64%
[4]; [8]
  Acceptor Concentration: 55.5 µM
[4]; [9]
  Acceptor Concentration: 54.4 µM
[4]; [10]
  Acceptor Concentration: 52.1 µM
[4]; [11]
  Acceptor Concentration: 59 µM
[4]; [12]
  Acceptor Concentration: 58.4 µM
[4]; [13]
  Acceptor Concentration: 67.8 µM
[4]; [14]
  Acceptor Concentration: 57.4 µM
[4]; [15]
  Acceptor Concentration: 59.8 µM
[4]; [16]
  Acceptor Concentration: 61.8 µM
[4]; [17]
  Acceptor Concentration: 56.8 µM
[5]
  Acceptor Concentration, Ave: 58.3 µM
  Δ % diffusion: ↑6%
[6]; Well 1 / %R, Well 1
  % recovery: 84% and 83%
[6]; Well 2 / %R, Well 2
  % recovery: 89%
[6]; Well 3 / %R, Well 3
  % recovery: 90% and 91%
[6]; Well 4 / %R, Well 4
  % recovery: 90%
[6]; Well 5 / %R, Well 5
  % recovery: 82% and 92%
[7]; Papp (x 10^-6 cm/s) / [row 1]
  Papp: 2.47 ×10⁻⁶ cm/s
[7]; Papp (x 10^-6 cm/s) / [row 2]
  Papp: 2.25 ×10⁻⁶ cm/s
[7]; Papp (x 10^-6 cm/s) / [row 3]
  Papp: 2.11 ×10⁻⁶ cm/s
[7]; Papp (x 10^-6 cm/s) / [row 4]
  Papp: 2.43 ×10⁻⁶ cm/s
[7]; Papp (x 10^-6 cm/s) / [row 5]
  Papp: 2.68 ×10⁻⁶ cm/s
[7]; Papp (x 10^-6 cm/s) / [row 6]
  Papp: 3.13 ×10⁻⁶ cm/s
[7]; Papp (x 10^-6 cm/s) / [row 7]
  Papp: 2.4 ×10⁻⁶ cm/s
[7]; Papp (x 10^-6 cm/s) / [row 8]
  Papp: 2.43 ×10⁻⁶ cm/s
[7]; Papp (x 10^-6 cm/s) / [row 9]
  Papp: 2.64 ×10⁻⁶ cm/s
[7]; Papp (x 10^-6 cm/s) / [row 10]
  Papp: 2.27 ×10⁻⁶ cm/s
